± gives the expanded uncertainty stated by the source.
Settings: Liquid, Ebulliometric method (Recirculating still)

Structure (SMILES)	vapor or sublimation pressure (324.4 K)	vapor or sublimation pressure (333.4 K)	vapor or sublimation pressure (340 K)	vapor or sublimation pressure (345.5 K)	vapor or sublimation pressure (350.1 K)	vapor or sublimation pressure (354.1 K)	vapor or sublimation pressure (357.7 K)	vapor or sublimation pressure (360.9 K)	vapor or sublimation pressure (363.8 K)	vapor or sublimation pressure (332.4 K)	vapor or sublimation pressure (341.4 K)	vapor or sublimation pressure (348.3 K)	vapor or sublimation pressure (353.9 K)	vapor or sublimation pressure (358.5 K)	vapor or sublimation pressure (362.6 K)	vapor or sublimation pressure (366.2 K)	vapor or sublimation pressure (369.4 K)	vapor or sublimation pressure (372.4 K)
CCc1ccccc1 [ethylbenzene]	5 ± 0.1 kPa	7.5 ± 0.1 kPa	10 ± 0.1 kPa	12.5 ± 0.1 kPa	15 ± 0.1 kPa	17.5 ± 0.1 kPa	20 ± 0.2 kPa	22.5 ± 0.2 kPa	25 ± 0.2 kPa	–	–	–	–	–	–	–	–	–
C=Cc1ccccc1 [styrene]	–	–	–	–	–	–	–	–	–	5 ± 0.1 kPa	7.5 ± 0.1 kPa	10 ± 0.1 kPa	12.5 ± 0.1 kPa	15 ± 0.1 kPa	17.5 ± 0.1 kPa	20 ± 0.2 kPa	22.5 ± 0.2 kPa	25 ± 0.2 kPa

From the NIST ThermoML archive (doi:10.1021/je200098d)
